According to ChEMBL document CHEMBL1629562, “Activity of indenoisoquinolines against African trypanosomes” (Antimicrob Agents Chemother, 2009):
Calls of active or inactive are those of the source. The calls are words filed in the database; no cut-off is given here.

Columns and labels:
[1] = tested on: Trypanosoma brucei brucei; assay: Inhibition of Trypanosoma brucei brucei 427 bloodstream form DNA synthesis assessed as inhibition of [3H]thymidine incorporation at 5 uM by liquid scintillation counting; format: functional
[2] = Therapeutic index, EC50 for mouse L1210 cells to EC50 for bloodstream-form Trypanosoma brucei brucei 427; format: cell-based; conditions: read-out: Ratio EC50
[3] = tested on: Trypanosoma brucei brucei; assay: Trypanocidal activity against Trypanosoma brucei brucei 427 bloodstream forms infected in mouse L1210 cells after 48 hrs; format: functional, organism-based; conditions: Trypanosoma brucei, 427, L1210, 48 h
[4] = tested on: Trypanosoma brucei brucei; assay: Inhibition of Trypanosoma brucei brucei 427 bloodstream forms topoisomerase 1B in assessed as formation of enzyme-DNA cleavable complex at 5 uM
L1210 = assay: Cytotoxicity against mouse L1210 cells; format: cell-based
[5] = tested on: Trypanosoma brucei brucei; assay: Inhibition of Trypanosoma brucei brucei 427 bloodstream forms topoisomerase 1B in assessed as formation of enzyme-DNA cleavable complex at 10 uM
[6] = tested on: Trypanosoma brucei brucei; assay: Inhibition of Trypanosoma brucei brucei 427 bloodstream form DNA synthesis assessed as inhibition of [3H]thymidine incorporation at 10 uM by liquid scintillation counting; format: functional
[7] = tested on: Trypanosoma brucei brucei; assay: Antitrypanosomal activity against Trypanosoma brucei brucei 427 bloodstream forms infected in CD1 mouse assessed as reduction in parasite load at 50 mg/kg, ip after 4 days; format: functional, organism-based; parameters: dose 50 mg/kg

COc1cc2c3c(n(CCCNCCCCN)c(=O)c2cc1OC)-c1cc2c(cc1C3=O)OCO2
inhibition at 5 µM [1]: 56% | selectivity ratio [2]: 4.3 | EC50 [3]: 990 nM | inhibition [4]: 7% | EC50 (L1210): 250 nM

NCCCn1c2c(c3ccccc3c1=O)C(=O)c1ccccc1-2
EC50 [3]: 380 nM

COc1cc2c3c(n(CCCN)c(=O)c2cc1OC)-c1cc2c(cc1C3=O)OCO2
inhibition at 5 µM [1]: 61% | selectivity ratio [2]: 2.1 | EC50 [3]: 120 nM | inhibition [4]: 4% | EC50 (L1210): 420 nM

NCCCn1c2c(c3ccc([N+](=O)[O-])cc3c1=O)C(=O)c1cc(F)ccc1-2
EC50 [3]: 80 nM

COc1cc2c3c(n(CCCN)c(=O)c2cc1OC)-c1ccccc1C3=O
inhibition at 5 µM [1]: 67% | selectivity ratio [2]: 4.3 | EC50 [3]: 130 nM | inhibition [4]: 4% | EC50 (L1210): 2800 nM

NCCCn1c2c(c3ccc(Br)cc3c1=O)C(=O)c1cc3c(cc1-2)OCO3
EC50 [3]: 160 nM

NCCCn1c2c(c3ccc([N+](=O)[O-])cc3c1=O)C(=O)c1cc3c(cc1-2)OCO3
EC50 [3]: 50 nM

COc1ccc2c(c1)C(=O)c1c-2n(CCCN)c(=O)c2cc([N+](=O)[O-])ccc12
EC50 [3]: 60 nM

NCCCn1c2c(c3ccc([N+](=O)[O-])cc3c1=O)C(=O)c1ccccc1-2
EC50 [3]: 140 nM

NCCCn1c2c(c3ccccc3c1=O)C(=O)c1cc3c(cc1-2)OCO3
EC50 [3]: 60 nM

COc1cc2c3c(n(CCCn4ccnc4)c(=O)c2cc1OC)-c1cc2c(cc1C3=O)OCO2 [INDIMITECAN]
EC50 [3]: 60 nM

COc1cc2c3c(n(CCCn4ccnc4)c(=O)c2cc1OC)-c1ccccc1C3=O
EC50 [3]: 350 nM

COC(=O)c1ccc2c(c1)C(=O)c1c-2n(CCCN)c(=O)c2cc(OC)c(OC)cc12
inhibition at 5 µM [1]: 66% | selectivity ratio [2]: 2.5 | EC50 [3]: 170 nM | inhibition [4]: 12% | EC50 (L1210): 2600 nM

CC[C@@]1(O)C(=O)OCc2c1cc1n(c2=O)Cc2cc3ccccc3nc2-1 [CAMPTOTHECIN]
inhibition [5]: 61% | inhibition at 10 µM [6]: 27%

O=C1c2ccccc2-c2c1c1ccc([N+](=O)[O-])cc1c(=O)n2CCCn1ccnc1
EC50 [3]: 200 nM

COc1cc2c3c(n(CCCNCCCNCCCNCCCN)c(=O)c2cc1OC)-c1cc2c(cc1C3=O)OCO2
inhibition at 5 µM [1]: 34% | selectivity ratio [2]: 1.9 | EC50 [3]: 1500 nM | inhibition [4]: 10% | EC50 (L1210): 510 nM

COc1cc2c3c(n(CCCNCCNCCCN)c(=O)c2cc1OC)-c1cc2c(cc1C3=O)OCO2
inhibition at 5 µM [1]: 44% | selectivity ratio [2]: 4 | EC50 [3]: 650 nM | inhibition [4]: 11% | EC50 (L1210): 280 nM

COc1ccc2c(c1)C(=O)c1c-2n(CCCN)c(=O)c2cc(OC)c(OC)cc12
inhibition at 5 µM [1]: 68% | selectivity ratio [2]: 5.6 | EC50 [3]: 50 nM | inhibition [4]: 3% | inhibition [7]: Active | EC50 (L1210): 4300 nM

O=C1c2ccccc2-c2c1c1ccccc1c(=O)n2CCCn1ccnc1
EC50 [3]: 4200 nM

COc1cc2c3c(n(CCCNCCCNCCN)c(=O)c2cc1OC)-c1cc2c(cc1C3=O)OCO2
EC50 [3]: 970 nM

COc1cc2c3c(n(CCCN)c(=O)c2cc1OC)-c1ccc(C#N)cc1C3=O
inhibition at 5 µM [1]: 69% | selectivity ratio [2]: 2.8 | EC50 [3]: 350 nM | inhibition [4]: 3% | EC50 (L1210): 970 nM

COc1cc2c(cc1OC)-c1c(c3ccc([N+](=O)[O-])cc3c(=O)n1CCCN)C2=O
EC50 [3]: 140 nM

COc1ccc2c(c1)C(=O)c1c-2n(CCCN)c(=O)c2ccccc12
EC50 [3]: 140 nM
